{"source": "ChEMBL document CHEMBL1135297", "about": "“Enantioselective synthesis of S-(+)-2beta-carboalkoxy-3alpha-[bis(4-fluorophenyl)methoxy]tropanes as novel probes for the dopamine transporter” (Bioorg Med Chem Lett, 2002)", "key": {"[1]": {"biological_target": "Sodium-dependent dopamine transporter (Rattus norvegicus, UniProt P23977)", "sequence (P23977 whole entry)": "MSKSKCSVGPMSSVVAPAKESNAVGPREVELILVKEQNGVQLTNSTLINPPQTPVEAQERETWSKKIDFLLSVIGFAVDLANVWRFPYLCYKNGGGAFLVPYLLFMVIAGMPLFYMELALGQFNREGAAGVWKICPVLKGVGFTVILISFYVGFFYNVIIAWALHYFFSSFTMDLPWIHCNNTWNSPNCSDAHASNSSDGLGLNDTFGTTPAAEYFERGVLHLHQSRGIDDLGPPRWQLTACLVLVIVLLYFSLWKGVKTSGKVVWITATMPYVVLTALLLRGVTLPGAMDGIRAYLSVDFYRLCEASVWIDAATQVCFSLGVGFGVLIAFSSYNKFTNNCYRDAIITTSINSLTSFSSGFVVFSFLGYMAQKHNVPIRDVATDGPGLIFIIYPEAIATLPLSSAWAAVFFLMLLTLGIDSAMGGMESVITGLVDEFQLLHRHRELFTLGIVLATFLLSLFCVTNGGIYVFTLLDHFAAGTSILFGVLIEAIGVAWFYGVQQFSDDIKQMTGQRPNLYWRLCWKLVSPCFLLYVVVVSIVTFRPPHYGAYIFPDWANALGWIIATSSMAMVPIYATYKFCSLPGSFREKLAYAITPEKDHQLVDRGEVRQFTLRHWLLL", "assay": "Ability to displace [3H]WIN-35 radioligand for the dopamine transporter 428 DAT in rat brain", "type": "tissue-based"}, "[2]": {"biological_target": "T1, Muscarinic acetylcholine receptor M1 (Rattus norvegicus, UniProt P08482)", "T1 sequence (P08482 whole entry)": "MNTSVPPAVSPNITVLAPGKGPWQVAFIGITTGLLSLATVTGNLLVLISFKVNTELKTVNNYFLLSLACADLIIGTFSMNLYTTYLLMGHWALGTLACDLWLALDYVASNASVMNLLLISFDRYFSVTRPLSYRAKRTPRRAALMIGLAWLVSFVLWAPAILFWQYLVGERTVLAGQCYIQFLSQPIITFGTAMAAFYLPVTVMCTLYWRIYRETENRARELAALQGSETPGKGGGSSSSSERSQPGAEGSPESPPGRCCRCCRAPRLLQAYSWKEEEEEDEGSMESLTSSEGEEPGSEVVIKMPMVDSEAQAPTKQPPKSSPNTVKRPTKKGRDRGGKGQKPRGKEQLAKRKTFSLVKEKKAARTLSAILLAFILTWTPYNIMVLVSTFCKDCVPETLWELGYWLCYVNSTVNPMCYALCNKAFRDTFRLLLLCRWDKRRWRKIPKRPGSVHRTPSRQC", "assay": "Ability to displace [3H]pirenzepine radioligand for the Muscarinic acetylcholine receptor M1 in rat brain", "type": "tissue-based"}, "[3]": {"biological_target": "Norepinephrine transporter (Rattus norvegicus, UniProt Q9WTR4)", "sequence (Q9WTR4 whole entry)": "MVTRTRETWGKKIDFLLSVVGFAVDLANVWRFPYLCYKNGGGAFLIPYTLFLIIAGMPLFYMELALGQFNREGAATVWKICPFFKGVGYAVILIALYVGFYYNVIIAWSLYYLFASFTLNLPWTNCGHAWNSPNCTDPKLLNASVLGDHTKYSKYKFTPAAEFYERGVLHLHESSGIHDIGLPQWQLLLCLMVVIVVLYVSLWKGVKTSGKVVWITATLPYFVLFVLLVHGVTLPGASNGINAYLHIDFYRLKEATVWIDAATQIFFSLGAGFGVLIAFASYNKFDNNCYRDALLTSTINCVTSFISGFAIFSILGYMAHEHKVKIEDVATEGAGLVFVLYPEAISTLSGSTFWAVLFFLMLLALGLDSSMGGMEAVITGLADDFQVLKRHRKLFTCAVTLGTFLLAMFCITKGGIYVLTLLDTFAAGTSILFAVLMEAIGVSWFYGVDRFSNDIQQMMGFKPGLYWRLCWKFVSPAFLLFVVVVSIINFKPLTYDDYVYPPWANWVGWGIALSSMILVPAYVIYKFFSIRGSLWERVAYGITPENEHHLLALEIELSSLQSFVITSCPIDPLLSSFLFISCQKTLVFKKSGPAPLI", "assay": "Ability to displace [3H]-nisoxatine radioligand for the Norepinephrine transporter in rat brain", "type": "tissue-based"}, "Rattus norvegicus": {"species_on_record": "Rattus norvegicus", "assay": "Inhibition of [3H]DA uptake in rat synaptosomes", "type": "functional, Brain"}, "[4]": {"biological_target": "Sodium-dependent serotonin transporter (Rattus norvegicus, UniProt P31652)", "sequence (P31652 whole entry)": "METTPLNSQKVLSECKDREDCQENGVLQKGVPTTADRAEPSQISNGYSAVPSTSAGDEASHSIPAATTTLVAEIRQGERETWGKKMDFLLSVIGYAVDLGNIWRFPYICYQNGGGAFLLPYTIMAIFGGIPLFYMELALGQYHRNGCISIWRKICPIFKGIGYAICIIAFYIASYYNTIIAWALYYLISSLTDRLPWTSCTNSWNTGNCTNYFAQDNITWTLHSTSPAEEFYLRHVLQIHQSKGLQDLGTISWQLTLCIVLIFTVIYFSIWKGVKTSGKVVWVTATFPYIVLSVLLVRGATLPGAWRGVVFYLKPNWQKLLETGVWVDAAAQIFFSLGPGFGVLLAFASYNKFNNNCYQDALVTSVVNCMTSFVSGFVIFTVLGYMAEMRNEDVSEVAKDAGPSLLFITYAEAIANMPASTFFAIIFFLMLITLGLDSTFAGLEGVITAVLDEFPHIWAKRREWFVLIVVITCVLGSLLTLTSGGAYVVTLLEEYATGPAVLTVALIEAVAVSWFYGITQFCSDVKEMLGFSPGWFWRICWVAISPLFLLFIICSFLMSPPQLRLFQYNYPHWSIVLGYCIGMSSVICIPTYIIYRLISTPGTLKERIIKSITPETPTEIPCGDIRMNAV", "assay": "Ability to displace [3H]citalopram radioligand, for the Serotonin transporter in rat brain", "type": "tissue-based"}}}
{"smiles": "CN1C2CCC1C(C(=O)OCc1ccccc1)C(OC(c1ccc(F)cc1)c1ccc(F)cc1)C2", "note": "(stereo unspecified)", "values": [{"measurement": "Ki", "setting": "[1]", "result": 40.2, "unit": "nM"}, {"measurement": "Ki", "setting": "[2]", "result": 4380, "unit": "nM"}, {"measurement": "Ki", "setting": "[3]", "result": 2230, "unit": "nM"}, {"measurement": "IC50", "setting": "Rattus norvegicus; Rattus norvegicus, Brain", "result": 2.2, "unit": "nM"}, {"measurement": "Ki", "setting": "[4]", "result": 2040, "unit": "nM"}]}
{"smiles": "COC(=O)C1C(OC(c2ccc(F)cc2)c2ccc(F)cc2)CC2CCC1N2C", "note": "(racemic)", "values": [{"measurement": "Ki", "setting": "[1]", "result": 21.3, "unit": "nM"}, {"measurement": "Ki", "setting": "[2]", "result": 302, "unit": "nM"}, {"measurement": "Ki", "setting": "[3]", "result": 474, "unit": "nM"}, {"measurement": "IC50", "setting": "Rattus norvegicus", "result": 2.9, "unit": "nM"}, {"measurement": "Ki", "setting": "[4]", "result": 1750, "unit": "nM"}]}
{"smiles": "CCOC(=O)C1C(OC(c2ccc(F)cc2)c2ccc(F)cc2)CC2CCC1N2C", "note": "(racemic)", "values": [{"measurement": "Ki", "setting": "[1]", "result": 26.2, "unit": "nM"}, {"measurement": "Ki", "setting": "[2]", "result": 1860, "unit": "nM"}, {"measurement": "Ki", "setting": "[3]", "result": 1020, "unit": "nM"}, {"measurement": "IC50", "setting": "Rattus norvegicus; Rattus norvegicus, Brain", "result": 3.6, "unit": "nM"}, {"measurement": "Ki", "setting": "[4]", "result": 3740, "unit": "nM"}]}
{"smiles": "CN1C2CCC1C(C(=O)OCc1ccccc1)C(OC(c1ccc(F)cc1)c1ccc(F)cc1)C2", "note": "(racemic)", "values": [{"measurement": "Ki", "setting": "[1]", "result": 90.3, "unit": "nM"}, {"measurement": "Ki", "setting": "[2]", "result": 5100, "unit": "nM"}, {"measurement": "Ki", "setting": "[3]", "result": 4110, "unit": "nM"}, {"measurement": "IC50", "setting": "Rattus norvegicus", "result": 3.5, "unit": "nM"}, {"measurement": "Ki", "setting": "[4]", "result": 3320, "unit": "nM"}]}
{"smiles": "CC(C)OC(=O)C1C(OC(c2ccc(F)cc2)c2ccc(F)cc2)CC2CCC1N2C", "note": "(racemic)", "values": [{"measurement": "Ki", "setting": "[1]", "result": 49.1, "unit": "nM"}, {"measurement": "Ki", "setting": "[2]", "result": 7640, "unit": "nM"}, {"measurement": "Ki", "setting": "[3]", "result": 1990, "unit": "nM"}, {"measurement": "IC50", "setting": "Rattus norvegicus", "result": 6.8, "unit": "nM"}, {"measurement": "Ki", "setting": "[4]", "result": 13800, "unit": "nM"}]}
{"smiles": "COC(=O)C1C(OC(c2ccc(F)cc2)c2ccc(F)cc2)CC2CCC1N2C", "note": "(single isomer, unassigned; (+))", "values": [{"measurement": "Ki", "setting": "[1]", "result": 12.9, "unit": "nM"}, {"measurement": "Ki", "setting": "[2]", "result": 133, "unit": "nM"}, {"measurement": "Ki", "setting": "[3]", "result": 269, "unit": "nM"}, {"measurement": "IC50", "setting": "Rattus norvegicus; Rattus norvegicus, Brain", "result": 1.5, "unit": "nM"}, {"measurement": "Ki", "setting": "[4]", "result": 690, "unit": "nM"}]}
{"smiles": "CCOC(=O)C1C(OC(c2ccc(F)cc2)c2ccc(F)cc2)CC2CCC1N2C", "note": "(single isomer, unassigned; (+))", "values": [{"measurement": "Ki", "setting": "[1]", "result": 16.8, "unit": "nM"}, {"measurement": "Ki", "setting": "[2]", "result": 1890, "unit": "nM"}, {"measurement": "Ki", "setting": "[3]", "result": 629, "unit": "nM"}, {"measurement": "Ki", "setting": "[4]", "result": 1850, "unit": "nM"}]}
{"smiles": "CC(C)OC(=O)C1C(OC(c2ccc(F)cc2)c2ccc(F)cc2)CC2CCC1N2C", "note": "(single isomer, unassigned; (+))", "values": [{"measurement": "Ki", "setting": "[1]", "result": 23.3, "unit": "nM"}, {"measurement": "Ki", "setting": "[2]", "result": 2680, "unit": "nM"}, {"measurement": "Ki", "setting": "[3]", "result": 642, "unit": "nM"}, {"measurement": "IC50", "setting": "Rattus norvegicus; Rattus norvegicus, Brain", "result": 6.2, "unit": "nM"}, {"measurement": "Ki", "setting": "[4]", "result": 12000, "unit": "nM"}]}
{"smiles": "CN1C2CCC1CC(OC(c1ccc(F)cc1)c1ccc(F)cc1)C2", "note": "(stereo unspecified) [DIFLUOROBENZTROPINE]", "values": [{"measurement": "Ki", "setting": "[3]", "result": 610, "unit": "nM"}, {"measurement": "Ki", "setting": "[4]", "result": 3260, "unit": "nM"}]}
